Tests used:
cyclin D1 = test: Cyclin D1 immunoblot in HC11 cells; type: cell-based, mouse; settings: Wnt1- and Wnt5a-HC11 cells treated 6 hr
Experimental: Briefly, WCL was prepared from HC11, Wnt1- and Wnt5a-expressing HC11 cells and 50 μg immunoblotted essentially as described above using commercially available antibodies against cyclin D1 (NovaCastra) or cyclin D2 (SantaCruz). Both Wnt1- and Wnt5a-HC11 cells express higher levels of cyclin D1, in comparison to HC11 cells. In addition, Wnt1-HC11 cells but not C- or Wnt5a-HC11 cells express cyclin D2.
C-HC11 cells were also treated 6 hrs with CM from Wnt-HC11 cells. WCL were prepared and 50 μg was immunoblotted for Cyclin D1 or Cyclin D2. Similar to the results with the Wnt-HC11 cell lines, both Wnts (CM) stimulated Cyclin D1 expression, while only Wnt1 enhanced cyclin D2 levels.
To assess the contribution of Wnt-transactivated ErbB1 on cyclin D1 and D2 expression, C- and Wnt-HC11 cells were treated 6 hr with PKI166 or CGS27023A or EGF. […] In contrast, the ErbB1 inhibitor had no effect on cyclin D2 levels. […] Thus, cyclin D1 and cyclin D2 are differentially controlled. Both Wnt1 and Wnt5a transactivate ErbB1, which results in increased expression of cyclin D1; in contrast cyclinD2 is only elevated in Wnt1 expressing cells and this is independent of ErbB1 activity.

ERK1/2 = test: phospho-ERK1/2 immunoblot (MAPK activity) in HC11 cells; type: cell-based, mouse; settings: for ability of the Wnt proteins to stimulate ERK1/2 activity: C-HC11 pretreated 1 hr with inhibitor, then Wnt CM for 10 minutes
Text: The MAPK and PI3K pathways are major signaling cascades downstream of activated ErbB receptors (Olayioye et al., 2000). Antisera specific for the active, phosphorylated forms of ERK1/2 and PKB, the major kinases on the respective pathways, were used to probe for their activity. 50 micrograms of WCL were immunoblotted essentially as described above with the exception that a phospho-ERK1/2 antibody (commercially available, New England Biolabs) or a phosphoPKB antibody was used. Membranes were stripped and reprobed for ERK1/2 (anti-p44/42 ERK, New England Biolabs).
Briefly, conditioned media (CM) from Wnt-HC11 cells prepared as described in Example 1 was tested for its effect on ErbB1 and MAPK activity, essentially as described above. Treatment of C-HC11 cells for 10 min with Wnt1- and Wnt5a-CM stimulated phospho-ERK1/2 levels 5-6-fold, whereas CM from C-HC11 cells had no effect.
To rule out the potential involvement of ErbB1 ligands in mediating the effects of Wnt-containing CM, we used secreted Frizzled-related protein-1 (sFRP-1), which binds Wnt preventing it from binding Fz (Uren et al., 2000). CM from human embryonic kidney (HEK293) cells stably expressing the sFRP1 expression vector or control HEK 293 cells was premixed 1 hr with Wnt-containing CM (1:1) before adding to C-HC11 cultures for 10 min. Simultaneous addition of CM from sFRP1-producing 293 cells with Wnt-containing CM prevented Wnt1 and Wnt5a from increasing phospho-ERK1/2 levels, showing that sFRP1 blocks Wnt signalling through Fz to ErbB1. As a control, the cells were also treated for 10 minutes with EGF in the presence of sFRP1.
To test for a role of metalloproteinases in Wnt-expressing HC11 cells, two metalloproteinase inhibitors were used, namely phenanthroline (Calbiochem), a metal ion chelator, or CGS27023A, an enzymatic inhibitor (Wang et al., 1999). Cells were treated for 1 hour with phenathroline, CGS27023A, (both at 50μM) or DMSO carrier. ErbB1 was immunoprecipitated from 500 micrograms WCL and immunoblotted with a phosphotyrosine specific antibody, essentially as described above. Membranes were stripped and reprobed for ErbB1. ERK1/2 was probed from 50 micrograms of WCL, immunoblotted with a phospho-ERK1/2 antibody, essentially as described above. Membranes were stripped and reprobed for ERK1/2.
The metalloproteinase inhibitors were next tested in the presence of Wnt-containing CM. C-HC11 cultures were pretreated 1 hr with metalloproteinase inhibitors before treatment with CM from C- or Wnt-HC11 cells for 10 minutes. Phospho-ERK1/2 levels were determined as above. Phenanthroline and CGS 27023A each blocked the ability of the Wnt proteins to stimulate ERK1/2 activity in C-HC11 cells. Similar results were obtained with HC11 cells constitutively expressing the Wnt proteins. Thus, Wnt-mediated activation of ErbB1 and ERK is dependent on a metalloproteinase activity.

ErbB1 = molecular target: T1, ErbB1 (Mus musculus, UniProt Q01279); test: ErbB1 immunoprecipitation and phosphotyrosine immunoblot in HC11 cells; type: cell-based; settings: Wnt-HC11 cells, 5 microM for 1 hr
T1 construct: endogenous in cells; host or cells: HC11 mammary cells (C-HC11, Wnt1-HC11, Wnt5a-HC11)
Experimental: ErbB1 is transactivated by many classes of membrane proteins (Carpenter, 1999; Gschwind et al., 2001). However, Wnt/VFz-mediated activation of ErbB1 has not been reported previously. Since ErbB1 tyrosine phosphorylation is an essential step in ErbB1 activation, we examined whether Wnt can activate ErbB1, by immunoprecipitating the receptor form Wnt/HC11 cells and performing a Westem analysis with phosphotyrosine specific antiserum. For these experiments HC11 cells were grown over night in medium without EGF. As a control for ErbB1 activation, C-HC 11 and Wnt-HC11 cells were treated for 10 minutes with 100 ng/ml EGF. An ErbB1 selective kinase inhibitor PKI166 (Traxler et al., 2001) was also used in some experiments. For this, the cells were pretreated 1 hr with 5 microM PKI 166, or left untreated, before preparing WCLs, essentially as described in Example 1.
ErbB1 was immunoprecipitated from 500 micrograms WCL and immunoblotted with a phosphotyrosine specific antibody (anti-phosphotyrosine AG10, Upstate Biotechnology) essentially as described previously (Lane et al., 2000). Membranes were stripped by placing them in 2% SDS, 62.5 mM Tris pH 6.8, 100 mM beta-mercaptoethanol at 60° C. for 30 min. Stripped membranes were reprobed for ErbB1 using a commercially available antibody (antibody 1005,Santa Cruz Biotechnology). […]

cyclin D2 = test: Cyclin D2 immunoblot in HC11 cells; type: cell-based, mouse; settings: Wnt-HC11 cells treated 6 hr
Experimental: Briefly, WCL was prepared from HC11, Wnt1- and Wnt5a-expressing HC11 cells and 50 μg immunoblotted essentially as described above using commercially available antibodies against cyclin D1 (NovaCastra) or cyclin D2 (SantaCruz). Both Wnt1- and Wnt5a-HC11 cells express higher levels of cyclin D1, in comparison to HC11 cells. In addition, Wnt1-HC11 cells but not C- or Wnt5a-HC11 cells express cyclin D2. C-HC11 cells were also treated 6 hrs with CM from Wnt-HC11 cells. WCL were prepared and 50 μg was immunoblotted for Cyclin D1 or Cyclin D2. Similar to the results with the Wnt-HC11 cell lines, both Wnts (CM) stimulated Cyclin D1 expression, while only Wnt1 enhanced cyclin D2 levels. To assess the contribution of Wnt-transactivated ErbB1 on cyclin D1 and D2 expression, C- and Wnt-HC11 cells were treated 6 hr with PKI166 or CGS27023A or EGF. […] In contrast, the ErbB1 inhibitor had no effect on cyclin D2 levels. […] Thus, cyclin D1 and cyclin D2 are differentially controlled. Both Wnt1 and Wnt5a transactivate ErbB1, which results in increased expression of cyclin D1; in contrast cyclinD2 is only elevated in Wnt1 expressing cells and this is independent of ErbB1 activity.

T1 sequence (Q01279 25-1210): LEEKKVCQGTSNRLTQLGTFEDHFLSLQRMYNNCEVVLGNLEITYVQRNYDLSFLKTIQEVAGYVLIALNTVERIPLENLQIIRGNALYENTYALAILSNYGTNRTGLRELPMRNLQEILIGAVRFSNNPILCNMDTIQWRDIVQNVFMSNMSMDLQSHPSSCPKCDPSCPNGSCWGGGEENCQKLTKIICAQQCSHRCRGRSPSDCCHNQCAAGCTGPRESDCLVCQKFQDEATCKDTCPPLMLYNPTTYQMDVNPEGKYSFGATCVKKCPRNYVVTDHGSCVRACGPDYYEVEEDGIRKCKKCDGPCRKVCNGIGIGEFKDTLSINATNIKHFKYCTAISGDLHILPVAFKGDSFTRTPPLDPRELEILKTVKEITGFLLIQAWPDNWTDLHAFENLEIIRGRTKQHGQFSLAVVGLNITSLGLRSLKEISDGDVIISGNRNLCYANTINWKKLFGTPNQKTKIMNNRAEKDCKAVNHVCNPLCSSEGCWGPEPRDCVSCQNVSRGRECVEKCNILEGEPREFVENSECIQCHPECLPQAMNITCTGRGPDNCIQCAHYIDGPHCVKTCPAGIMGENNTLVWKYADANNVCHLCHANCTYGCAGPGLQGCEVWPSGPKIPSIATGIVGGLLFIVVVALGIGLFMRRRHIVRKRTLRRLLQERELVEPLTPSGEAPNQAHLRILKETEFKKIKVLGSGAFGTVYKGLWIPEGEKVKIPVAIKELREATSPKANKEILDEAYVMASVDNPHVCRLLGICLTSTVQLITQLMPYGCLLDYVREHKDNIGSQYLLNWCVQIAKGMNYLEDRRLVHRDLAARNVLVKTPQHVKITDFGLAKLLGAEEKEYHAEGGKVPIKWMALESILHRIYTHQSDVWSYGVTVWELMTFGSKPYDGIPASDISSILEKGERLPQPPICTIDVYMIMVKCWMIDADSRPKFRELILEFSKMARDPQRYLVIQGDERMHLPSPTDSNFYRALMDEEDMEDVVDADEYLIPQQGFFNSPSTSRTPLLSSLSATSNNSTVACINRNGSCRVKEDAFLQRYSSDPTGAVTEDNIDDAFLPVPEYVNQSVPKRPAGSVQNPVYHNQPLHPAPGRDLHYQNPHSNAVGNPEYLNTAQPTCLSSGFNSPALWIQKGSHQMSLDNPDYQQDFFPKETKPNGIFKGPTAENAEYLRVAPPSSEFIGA

Question: `C[C@@H](Nc1ncnc2[nH]c(-c3ccc(O)cc3)cc12)c1ccccc1` [PKI166] was tested. Which “cyclin D1 level” value (cyclin D1) did it give?
Answer: The value was “reduced cyclin D1 to the control level”.

Question: What about the “ability of Wnt-containing CM to stimulate phospho-ERK1/2 levels” value (ERK1/2; C-HC11 cells pre-treated for 1 hour with inhibitor) of the same compound?
Answer: The value was “blocked”.

Question: What about the “EGF induction of MAPK activity” value (ERK1/2; C-HC11 cells, pretreatment with inhibitor) of the same compound?
Answer: The value was “prevented”.

Question: What about the “constitutive level of phospho-ERK1/2” value (ERK1/2; Wnt-expressing HC11 cells) of the same compound?
Answer: Its value is “reduced the constitutive level of phospho-ERK1/2 to basal”.

Question: What about the “decrease of ErbB1's phosphotyrosine level” value (ErbB1) of the same compound?
Answer: Its value is “approximately 50%”.

Question: And the “cyclin D2 levels” value (cyclin D2)?
Answer: The value was “no effect”.

Question: How did the “ability of the Wnt proteins to stimulate ERK1/2 activity” value (ERK1/2) turn out when `c1cnc2c(c1)ccc1cccnc12` [Phenanthroline, phenanthroline] was run?
Answer: Its value is “blocked”.

Question: With `COc1ccc(S(=O)(=O)N(Cc2cccnc2)[C@@H](C(=O)NO)C(C)C)cc1` [CGS27023A] as the compound, how does the “cyclin D1 level” value (cyclin D1) read?
Answer: The value was “decreased expression”.

Question: What about the “ability of the Wnt proteins to stimulate ERK1/2 activity” value (ERK1/2) of the same compound?
Answer: Its value is “blocked”.

Source: patent publication US20060019320A1, “Wnt mediated erbb signalling, compositions and uses related thereto” (priority 2002, published 2006)
